# Tests used:
# [1] = plasma levels of pyridostigmine in rats; type: in vivo, rat
# Procedure: (§1) For animal studies, rats weighing 175-225 g were placed in metabolic cages and deprived of solid food for 14 hours. For urine studies they were hydrated by the administration of 2.5 ml per 100 g of warm water by stomach tube. This was repeated after 1 hour. An 80 μg aliquot of pyridostigmine in 0.2 ml water was injected intramuscularly into a hind limb. Urine free from feces was collected over a period of 24 hours. In blood studies a similar dose was administered intramuscularly. At selected intervals over a period of 1 hour blood specimens were collected from excised hearts.
# (§2) The assay was applied to the quantitation of pyridostigmine in urine and plasma of rats following the oral administration of 450 μg of pyridostigmine bromide per kg of body weight. One ml of urine and 1.5 ml of plasma samples were used for an assay. The urinary excretion of pyridostigmine in three rats over a 24-hour period was 60.0 and 65.4% of […]
# [2] = urinary excretion of pyridostigmine in rats; type: in vivo, rat
# Procedure: as §1, §2
# [3] = extraction of pyridostigmine from basic solutions by organic solvents; type: physicochemical
smiles,measurement,setting,value
CN(C)C(=O)Oc1ccc[n+](C)c1 [pyridostigmine],initial plasma concentrations relative to that of urine,[1]; average of three experiments for a single time point,about 1/25
same,concentration at 7 min,"[1]; plasma, im, 0.08 mg, approximately 80 μg per rat, after 7 min",250 ng/mL
same,concentration at 1 h,"[1]; plasma, im, 0.08 mg, approximately 80 μg per rat, within 1 hour",< 50 ng/mL
same,urinary excretion of pyridostigmine (% of the total dose injected),"[2]; over a 24-hour period, 450 μg/kg pyridostigmine bromide, 0.45 mg/kg, 1440 min",65.4%
same,dose excreted at 48 h,"[2]; rat, urine, im, 0.08 mg, between 24 and 48 hours, read-out: urinary excretion (% of the total dose injected)",< 5%
same,dose excreted at 24 h,"[2]; rat, urine, im, 0.45 mg/kg, over a 24-hour period, 450 μg/kg pyridostigmine bromide, read-out: urinary excretion of pyridostigmine (% of the total dose injected)",60%
same,extraction from basic solutions by organic solvents of various polarities,[3],could not extract

# From patent publication US4590166A, “Method for separating and measuring the amount of polar compounds and their metabolites in aqueous solutions” (priority 1983, dated 1986)
